Assay results as given in US20250313563A1, “GLYCOGEN SYNTHASE KINASE 3 INHIBITORS AND USES THEREOF” (The Broad Institute, Inc., priority 2022, published 2025).
Read-outs that look alike come from different tables or passages of the source.

Tests used:
[1] = biological target: GSK3α (GST-full length GSK3α) (Homo sapiens (Human), UniProt P49840); assay: GSK3α TR-FRET kinase assay; type: biochemical; conditions: IC50
In short: (§1)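 Compound was preincubated 30 min with 1 nM GST-GSK3 enzyme. Reaction ran 100 min at ambient temperature in Tris pH 7.5/MgCl2 with 200 nM biotinylated pS645-glycogen synthase 631-650 peptide and ATP (4 μM GSK3α, 2 μM GSK3b, or 1 mM). The EDTA-stopped reaction was read by TR-FRET (Tb-anti-pSer641/streptavidin-d2), and IC50s were fitted.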

[2] = biological target: GSK3b (GST-full length GSK3b) (Homo sapiens (Human), UniProt P49841); assay: GSK3b TR-FRET kinase assay; type: biochemical; conditions: IC50
Sequence of GSK3b (GST-full length GSK3b) (P49841 whole entry): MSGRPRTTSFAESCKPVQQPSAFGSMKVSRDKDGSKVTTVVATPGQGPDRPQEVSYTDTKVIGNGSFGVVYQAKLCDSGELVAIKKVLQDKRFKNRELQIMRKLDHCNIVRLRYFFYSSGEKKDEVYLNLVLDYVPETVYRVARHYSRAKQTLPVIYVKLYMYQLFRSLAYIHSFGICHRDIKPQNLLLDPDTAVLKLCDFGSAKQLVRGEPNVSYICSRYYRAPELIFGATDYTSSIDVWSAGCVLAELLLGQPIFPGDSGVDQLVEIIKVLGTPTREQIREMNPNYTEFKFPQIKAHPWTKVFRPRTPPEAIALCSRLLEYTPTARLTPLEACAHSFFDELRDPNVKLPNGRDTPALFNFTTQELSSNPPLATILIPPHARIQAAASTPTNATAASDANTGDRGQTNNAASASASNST
In short: as §1

[3] = 1 nM GSK3α, 4 μM ATP, 30 minute preincubation, geometric mean, read-out: GSK3-A TR-FRET BIOCHEMICAL (TR-FRET), GMean
[4] = 1 nM GSK3b, 2 μM ATP, 30 minute preincubation, geometric mean, read-out: GSK3-B TR-FRET BIOCHEMICAL (TR-FRET), GMean
[5] = read-out: GSK3-A (TR-FRET 1 mM ATP), GMean, 1 mM ATP, geometric mean
[6] = read-out: GSK3-B (TR-FRET 1 mM ATP), GMean, 1 mM ATP, geometric mean
[7] = 1 nM GSK3α, 4 μM ATP, 30 minute preincubation, Table 16, read-out: GSK3-A TR-FRET BIOCHEMICAL (TR-FRET)
[8] = 1 nM GSK3b, 2 μM ATP, 30 minute preincubation, Table 16, read-out: GSK3-B TR-FRET BIOCHEMICAL (TR-FRET)

Sequence of GSK3α (GST-full length GSK3α) (P49840 whole entry): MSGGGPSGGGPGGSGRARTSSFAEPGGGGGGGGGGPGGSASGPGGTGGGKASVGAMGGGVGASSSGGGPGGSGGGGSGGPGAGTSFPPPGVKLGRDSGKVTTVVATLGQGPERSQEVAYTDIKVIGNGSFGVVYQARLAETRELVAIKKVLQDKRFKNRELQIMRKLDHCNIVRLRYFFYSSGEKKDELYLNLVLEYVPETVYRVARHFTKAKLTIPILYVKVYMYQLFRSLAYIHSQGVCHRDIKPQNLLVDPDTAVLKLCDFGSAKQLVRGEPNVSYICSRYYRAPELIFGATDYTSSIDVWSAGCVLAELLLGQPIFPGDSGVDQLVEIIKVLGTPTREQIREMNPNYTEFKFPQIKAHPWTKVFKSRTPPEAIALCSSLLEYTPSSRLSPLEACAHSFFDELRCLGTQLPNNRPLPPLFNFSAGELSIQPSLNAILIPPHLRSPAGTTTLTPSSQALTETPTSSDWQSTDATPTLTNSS

SMILES	IC50 [1, 3] [nM]	IC50 [2, 4] [nM]	other results
CCC1(c2cccc(N3CCCC3)c2)C2=C(CC(C)(C)CC2=O)Nc2n[nH]c(C(F)(F)F)c21 (centres unmarked) [Compound 810506]	≤ 100	≤ 100	
CCC1(c2cccc(N3CCOCC3)c2)C2=C(CC(C)(C)CC2=O)Nc2n[nH]c(C(F)(F)F)c21 (centres unmarked) [Compound 810507]	≤ 100	≤ 100	
CC1(C)CC(=O)C2=C(C1)Nc1n[nH]c(CC(F)(F)F)c1C21CCc2c(F)cccc21 (centres unmarked) [Compound 810590]	100 to 1000	100 to 1000	
CC1(C)CC(=O)C2=C(C1)Nc1[nH]nc(C3(C(F)(F)F)CC3)c1C21CCc2c(F)cccc21 (centres unmarked) [Compound 810591]	100 to 1000	100 to 1000	
CCC1(c2ccccc2)C2=C(CS(=O)(=O)CC2=O)Nc2n[nH]cc21 (centres unmarked) [Compound 811512]			IC50 ([1]; 1 nM GSK3α, 4 μM ATP, 30 minute preincubation, read-out: GSK3-A TR-FRET BIOCHEMICAL (TR-FRET)): > 5000 nM; IC50 ([2]; 1 nM GSK3b, 2 μM ATP, 30 minute preincubation, read-out: GSK3-B TR-FRET BIOCHEMICAL (TR-FRET)): > 5000 nM
Cc1[nH]nc2c1C(C)(c1cccc(C(F)(F)F)c1)C1=C(CC(C)(C)CC1=O)N2 (centres unmarked) [Compound 811556]	≤ 100	≤ 100	
CCC1(c2cccc(OC)c2)C2=C(CC(C)CC2=O)Nc2n[nH]cc21 (centres unmarked) [Compound 811559]	≤ 100	100 to 1000	
CCC1(c2cccc(-c3cnn(C)c3)c2)C2=C(CC(C)(C)CC2=O)Nc2n[nH]c(C(F)(F)F)c21 (centres unmarked) [Compound 811567]	100 to 1000	100 to 1000	
CCC1(c2cccc(-c3cnn(C)c3)c2)C2=C(CC(C)CC2=O)Nc2n[nH]cc21 (centres unmarked) [Compound 816752]	≤ 100	1000 to 5000	
CC1(C)CC(=O)C2=C(C1)Nc1n[nH]cc1C21CCc2c(Cl)cccc21 (centres unmarked) [Compound 816795]	≤ 100	100 to 1000	
CC1(C)CC(=O)C2=C(C1)Nc1n[nH]cc1[C@@]2(C)c1cc(C(F)(F)F)ccc1F [Compound 816797]	1000 to 5000	> 5000	
CC1(C)CC(=O)C2=C(C1)Nc1n[nH]cc1[C@]2(C)c1cc(C(F)(F)F)ccc1F [Compound 816798]	≤ 100	100 to 1000	
CCC1(c2cccc(N3CCCCC3)c2)C2=C(CC(C)(C)CC2=O)Nc2n[nH]c(C(F)(F)F)c21 (centres unmarked) [Compound 816799]	100 to 1000	1000 to 5000	
CC[C@]1(c2cccc(N3CCCCC3)c2)C2=C(CC(C)(C)CC2=O)Nc2n[nH]c(C(F)(F)F)c21 [Compound 816800]	≤ 100	≤ 100	IC50 [1, 5]: ≤ 100 nM; IC50 [2, 6]: ≤ 100 nM
CC1(C)CC(=O)C2=C(C1)Nc1n[nH]c(CC(F)(F)F)c1C21CCc2c(F)cccc21 (centres unmarked) [Compound 816837]	1000 to 5000	100 to 1000	
CC1(C)CC(=O)C2=C(C1)Nc1n[nH]c(C3(C(F)(F)F)CC3)c1C21CCc2c(F)cccc21 (centres unmarked) [Compound 816839]	> 5000	1000 to 5000	
CC1(C)CC(=O)C2=C(C1)Nc1n[nH]c(C3(C(F)(F)F)CC3)c1C21CCc2c(F)cccc21 (centres unmarked) [Compound 816840]	1000 to 5000	100 to 1000	
CC[C@]1(c2ccccc2)C2=C(C[C@@]3(CCCOC3)CC2=O)Nc2n[nH]cc21 [Compound 816876]	> 5000	> 5000	
CC[C@]1(c2ccccc2)C2=C(C[C@]3(CCCOC3)CC2=O)Nc2n[nH]cc21 [Compound 816877]	> 5000	> 5000	
CC[C@@]1(c2ccccc2)C2=C(C[C@@]3(CCCOC3)CC2=O)Nc2n[nH]cc21 [Compound 816878]	100 to 1000	1000 to 5000	
CC[C@@]1(c2ccccc2)C2=C(C[C@]3(CCCOC3)CC2=O)Nc2n[nH]cc21 [Compound 816879]	100 to 1000	100 to 1000	
CCC1(c2cccc(N3CCOCC3)c2)C2=C(CC(C)(C)CC2=O)Nc2n[nH]c(C(F)(F)F)c21 (centres unmarked) [Compound 816886]	1000 to 5000	1000 to 5000	
CC1(C)CC(=O)C2=C(C1)Nc1n[nH]cc1C2(C)CCc1ccccc1 (centres unmarked) [Compound 819562]			IC50 [1, 7]: 1000 to 5000 nM; IC50 [2, 8]: > 5000 nM
CCC1(CCc2ccccc2)C2=C(CC(C)(C)CC2=O)Nc2n[nH]cc21 (centres unmarked) [Compound 819563]			IC50 [1, 7]: 1000 to 5000 nM; IC50 [2, 8]: > 5000 nM
CCC1(c2cccc(Br)c2)C2=C(CC(C(F)(F)F)CC2=O)Nc2n[nH]cc21 (centres unmarked) [Compound 819565]	100 to 1000	100 to 1000	
CC[C@]1(c2cccc(N3CCCC3)c2)C2=C(CC(C)(C)CC2=O)Nc2n[nH]c(C(F)(F)F)c21 [Compound 819574]	≤ 100	≤ 100	IC50 [1, 5]: ≤ 100 nM; IC50 [2, 6]: ≤ 100 nM
CCC1(c2cccc(N3CCCC3)c2)C2=C(CC(C)(C)CC2=O)Nc2n[nH]c(C(F)(F)F)c21 (centres unmarked) [Compound 819575]	100 to 1000	≤ 100	IC50 [1, 5]: ≤ 100 nM; IC50 [2, 6]: ≤ 100 nM

Now from value to compound, other results behind:

IC50 [1, 3] [nM]	IC50 [2, 4] [nM]	SMILES	other results
≤ 100	100 to 1000	CCC1(c2cccc(SC)c2)C2=C(CC(C)(C)CC2=O)Nc2n[nH]cc21 (centres unmarked) [Compound 810508]	
> 5000	> 5000	CC[C@@]1(c2cccc(N3CCCC3)c2)C2=C(CC(C)(C)CC2=O)Nc2n[nH]cc21 [Compound 810509]	
100 to 1000	100 to 1000	CCC1(c2ccccc2)C2=C(CC3(CCC3)CC2=O)Nc2n[nH]cc21 (centres unmarked) [Compound 811555]	
≤ 100	≤ 100	CC[C@]1(c2cccc(C3CC3)c2)C2=C(CC(C)(C)CC2=O)Nc2n[nH]cc21 [Compound 811557]	IC50 [1, 5]: 100 to 1000 nM; IC50 [2, 6]: 1000 to 5000 nM
1000 to 5000	> 5000	CC[C@@]1(c2cccc(OC)c2)C2=C(CC(C)(C)CC2=O)Nc2n[nH]cc21 [Compound 811561]	
1000 to 5000	> 5000	CC[C@@]1(c2cccc(OC(C)C)c2)C2=C(CC(C)(C)CC2=O)Nc2n[nH]cc21 [Compound 811563]	
100 to 1000	1000 to 5000	CCC1(c2ccccc2)C2=C(CC(C)(C(F)(F)F)CC2=O)Nc2n[nH]cc21 (centres unmarked) [Compound 816796]	
> 5000	> 5000	CC[C@]1(c2ccccc2)C2=C(C[C@](C)(COC)CC2=O)Nc2n[nH]cc21 [Compound 816872]	
100 to 1000	1000 to 5000	CC[C@]1(c2ccccc2)C2=C(C[C@@](C)(COC)CC2=O)Nc2n[nH]cc21 [Compound 816873]	
> 5000	> 5000	CC[C@@]1(c2ccccc2)C2=C(C[C@](C)(COC)CC2=O)Nc2n[nH]cc21 [Compound 816874]	
100 to 1000	1000 to 5000	CC[C@@]1(c2ccccc2)C2=C(C[C@@](C)(COC)CC2=O)Nc2n[nH]cc21 [Compound 816875]	
> 5000	> 5000	CC[C@]1(c2ccccc2)C2=C(C[C@]3(CCOC3)CC2=O)Nc2n[nH]cc21 [Compound 816880]	
100 to 1000	1000 to 5000	CC[C@]1(c2ccccc2)C2=C(C[C@@]3(CCOC3)CC2=O)Nc2n[nH]cc21 [Compound 816881]	
> 5000	> 5000	CC[C@@]1(c2ccccc2)C2=C(C[C@]3(CCOC3)CC2=O)Nc2n[nH]cc21 [Compound 816882]	
100 to 1000	1000 to 5000	CC[C@@]1(c2ccccc2)C2=C(C[C@@]3(CCOC3)CC2=O)Nc2n[nH]cc21 [Compound 816884]	
1000 to 5000	> 5000	CCC1(c2cccc(CN3CCCCC3)c2)C2=C(CC(C)(C)CC2=O)Nc2n[nH]cc21 (centres unmarked) [Compound 819560]	
≤ 100	≤ 100	CCC1(c2cccc(S(C)(=O)=O)c2)C2=C(CC(C)(C)CC2=O)Nc2n[nH]cc21 (centres unmarked) [Compound 819561]	
≤ 100	≤ 100	CCC1(c2cccc(C(F)F)c2)C2=C(CC(C)(C)CC2=O)Nc2n[nH]cc21 (centres unmarked) [Compound 819564]	
100 to 1000	100 to 1000	CC[C@@]1(c2ccccc2)C2=C(C[C@](C)(C(F)(F)F)CC2=O)Nc2n[nH]cc21 [Compound 819568]	
100 to 1000	1000 to 5000	CC[C@]1(c2ccccc2)C2=C(C[C@](C)(C(F)(F)F)CC2=O)Nc2n[nH]cc21 [Compound 819569]	
> 5000	> 5000	CC[C@]1(c2ccccc2)C2=C(C[C@@](C)(C(F)(F)F)CC2=O)Nc2n[nH]cc21 [Compound 819570]	
> 5000	> 5000	CC[C@@]1(c2ccccc2)C2=C(C[C@@](C)(C(F)(F)F)CC2=O)Nc2n[nH]cc21 [Compound 819571]	
> 5000	> 5000	CC[C@]1(c2ccccc2)C2=C(CC3(CCC3)CC2=O)Nc2n[nH]cc21 [Compound 819572]	
≤ 100	100 to 1000	CC[C@@]1(c2ccccc2)C2=C(CC3(CCC3)CC2=O)Nc2n[nH]cc21 [Compound 819573]	
100 to 1000	1000 to 5000	CCC1(c2cccc(-c3cnn(C)c3)c2)C2=C(CC(C)(C)CC2=O)Nc2n[nH]cc21 (centres unmarked) [Compound 819576]	
≤ 100	100 to 1000	CCC1(c2cccc(-c3cnn(C)c3)c2)C2=C(CC(C)(C)CC2=O)Nc2n[nH]cc21 (centres unmarked) [Compound 819577]	IC50 [1, 5]: 100 to 1000 nM; IC50 [2, 6]: > 5000 nM
